What was measured:
Assay type in all cases: cell-based
HCC827 cells = experiment: Cell growth inhibition (CellTiter-Glo, 3 days) in HCC827; settings: Homo sapiens, 72 h, 3 days after administration
In short: (§1)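 HCC827 cells in RPMI/10% FBS and A431 cells in DMEM/10% FBS were seeded at 5000 cells/well and left overnight. Compound was then added over a concentration range for 3 days of incubation, and viability was read by CellTiter-Glo luminescence.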

[1] = system: HCC827-SVD cells (human EGFR exon 20 insertion mutant D770_N771 insSVD); experiment: Cell growth inhibition (CellTiter-Glo, 3 days) in HCC827-SVD; settings: 72 h, 3 days after administration
In short: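 HCC827 cells carrying lentiviral codon-optimized EGFR D770_N771 insSVD, with endogenous EGFR knocked out by CRISPR (single clone), seeded at 5000 cells/well in RPMI with 10% FBS. Viability read by CellTiter-Glo luminescence.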

[2] = system: HCC827-ASV cells (human EGFR exon 20 insertion mutant A769_D770insASV); experiment: Cell growth inhibition (CellTiter-Glo, 3 days) in HCC827-ASV; settings: 72 h, 3 days after administration
In short: (§2)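 HCC827 cells lentivirally transduced with codon-optimized ASV or YVMA insertion mutants were seeded at 5000 cells/well in RPMI with 10% FBS and incubated overnight. Compound was added at various concentrations from a 10× stock in medium, with 3 days' incubation. Viability read by CellTiter-Glo luminescence.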

[3] = system: HCC827-YVMA cells (human ERBB2 exon20 insertion mutant A775_G776ins YVMA); experiment: Cell growth inhibition (CellTiter-Glo, 3 days) in HCC827-YVMA; settings: 72 h, 3 days after administration
In short: as §2

A431 cells = experiment: Cell growth inhibition (CellTiter-Glo, 3 days) in A431; settings: Homo sapiens, A-431, 72 h, 3 days after administration
In short: as §1

GI50 (HCC827 cells) [nM] | GI50 [1] [nM] | GI50 [2] [nM] | GI50 [3] [nM] | GI50 (A431 cells) [nM] | SMILES
< 30 | < 30 | < 30 | < 30 | 100 to 300 | C=CC(=O)N1CCC(Nc2cc3c(Nc4ccc(OCc5ccccn5)c(Cl)c4)ncnc3cc2OCCN2CCOCC2)CC1 [Example 95, 1-(4-((4-((3-chloro-4-(pyridin-2-ylmethoxy)phenyl)amino)-7-(2-morpholinoethoxy)quinazolin-6-yl)amino)piperidin-1-yl)prop-2-en-1-one]
60 to 100 | 100 to 300 | 100 to 300 | 100 to 300 | 300 to 600 | C=CC(=O)N1CCC(Nc2cc3c(Nc4ccc(OCc5ccccn5)c(Cl)c4)ncnc3cc2OCCN(C)C)CC1 [Example 96, 1-(4-((4-((3-chloro-4-(pyridin-2-ylmethoxy)phenyl)amino)-7-(2-(dimethylamino)ethoxy)quinazolin-6-yl)amino)piperidin-1-yl)prop-2-en-1-one]
60 to 100 | < 30 | < 30 | < 30 | 100 to 300 | C=CC(=O)N1CCC(Nc2cc3c(Nc4ccc(Oc5ccnc(-c6nc(C)cs6)c5)cc4F)ncnc3cc2OC)CC1 [Example 98, 1-(4-((4-((2-fluoro-4-((2-(4-methylthiazol-2-yl)pyridin-4-yl)oxy)phenyl)amino)-7-methoxyquinazolin-6-yl)amino)piperidin-1-yl)prop-2-en-1-one]
60 to 100 | 60 to 100 | 30 to 60 | 30 to 60 | 600 to 1000 | C=CC(=O)N1CCC(Nc2cc3c(Nc4ccc(Oc5ccnc(-c6ncc(C)s6)c5)cc4F)ncnc3cc2OC)CC1 [Example 99, 1-(4-((4-((2-fluoro-4-((2-(5-methylthiazol-2-yl)pyridin-4-yl)oxy)phenyl)amino)-7-methoxyquinazolin-6-yl)amino)piperidin-1-yl)prop-2-en-1-one]
100 to 300 | 60 to 100 | 100 to 300 | 100 to 300 | 100 to 300 | C=CC(=O)N1CCC(Nc2cc3c(Nc4ccc(Oc5ccnc(N6CCCC6)c5)cc4F)ncnc3cc2OC)CC1 [Example 102, 1-(4-((4-((2-fluoro-4-((2-(pyrrolidin-1-yl)pyridin-4-yl)oxy)phenyl)amino)-7-methoxyquinazolin-6-yl)amino)piperidin-1-yl)prop-2-en-1-one]
30 to 60 | < 30 | < 30 | < 30 | 100 to 300 | C=CC(=O)N1CCC(Nc2cc3c(Nc4ccc(Oc5ccnc(N(C)C)c5)cc4F)ncnc3cc2OC)CC1 [Example 103, 1-(4-((4-((4-((2-(dimethylamino)pyridin-4-yl)oxy)-2-fluorophenyl)amino)-7-methoxyquinazolin-6-yl)amino)piperidin-1-yl)prop-2-en-1-one]
100 to 300 | < 30 | < 30 | < 30 | ≥ 1000 | C=CC(=O)N1CCC(Nc2cc3c(Nc4ccc(Oc5ccnc(N6CCC(OC)CC6)c5)cc4F)ncnc3cc2OC)CC1 [Example 104, 1-(4-((4-((2-fluoro-4-((2-(4-methoxypiperidin-1-yl)pyridin-4-yl)oxy)phenyl)amino)-7-methoxyquinazolin-6-yl)amino)piperidin-1-yl)prop-2-en-1-one]
300 to 600 | < 30 | < 30 | < 30 | ≥ 1000 | C=CC(=O)N1CCC(Nc2cc3c(Nc4ccc(Oc5ccnc(N6C[C@H](C)O[C@@H](C)C6)c5)cc4F)ncnc3cc2OC)CC1 [Example 105, 1-(4-((4-((4-((2-((2S,6S)-2,6-dimethylmorpholino)pyridin-4-yl)oxy)-2-fluorophenyl)amino)-7-methoxyquinazolin-6-yl)amino)piperidin-1-yl)prop-2-en-1-one]
